{
  "source": "patent US12168003B2",
  "about": "“Selective inhibition of T follicular helper cells for treatment of autoimmune disorders” (priority 2019, dated 2024)",
  "key": {"[1]": {"test_system": "differentiated TH1, TH2 or TH17 cells", "assay": "In vitro CD4+ T cell differentiation and cytokine production", "type": "cell-based, mouse", "settings": "20 μM 4EGI-1, 48 hours", "description": "Naïve CD4^+ T cells were isolated (EasySep™ Naïve CD4^+ T cell isolation; StemCell) and incubated in mouse T cell media (described under “Silencing of eIF4E in OT2 T cells by lentivirus transduction section”) containing soluble 1 μg/mL anti-CD28, cytokines, and anti-cytokine antibodies as detailed for polarization to TH1: 10 ng/mL mouse IL-12, 50 U/mL human IL-2, 10 μg/mL anti-mouse IL-4; TH2: 10 ng/mL mouse IL-4, 50 U/mL human IL-2, 10 μg/mL anti-mouse IFN-γ; TH17: 20 ng/mL mouse IL-6, 10 ng/mL mouse IL-23, 10 ng/mL mouse IL-113, 2 ng/mL human TGF-β1, 50 U/mL human IL-2 […], 10 μg/mL anti-mouse IFN-γ; and Treg: 2 ng/mL mouse TGFβ, 300 U/mL human IL-2. TH1, TH2, and TH17 differentiation kits (Cytobox) along with human IL-2 were purchased from Miltenyi Biotec. Mouse TGFβ was purchased from BioLegend®. Naïve CD4^+ T cells in conditions described above were activated on 10 μg/mL anti-CD3 coated plates for 3 days. Following differentiation, 20 μM 4EGI-1 was added to T cell cultures for 48 hours. Supernatant was removed and cytokine levels were determined using LEGENDPlex Mouse Th Cytokine Panel (BioLegend®)."}, "[2]": {"test_system": "CD4+ T cells from mice immunized with OVA/Alum", "assay": "In vitro treatment of mouse splenocytes with 4EGI-1 and SUnSET assay", "type": "cell-based", "description": "Mice were immunized with 100 μg OVA/Alum and 7 days following, spleens were harvested and single-cell suspensions were generated. Splenocytes were incubated in mouse T cell media (detailed in Silencing of eIF4E in OT2 T cells by lentivirus transduction) with 0-25 μM 4EGI-1 for 4 hours at 37° C. Cells were stained with a live/dead viability marker and then for extracellular expression of CD4, CXCR5, PD-1, or ICOS or intranuclear expression of BCL6. For the SuNSET assay, cells from above were incubated 37° C. with 10 μg/mL puromycin for 10 minutes. Control samples were incubated with puromycin and 100 μg/mL cycloheximide. Cells were incubated with a live/dead viability marker and extracellular stain prior to fixation and permeabilization (BD Biosciences Fixation/Permeabilization Solution) and intracellular staining with anti-puromycin followed by anti-mouse IgG2a antibody conjugated to Alexa Fluor 488."}, "[3]": {"test_system": "EAE mice", "assay": "Active EAE (MOG33-55/CFA), 4EGI-1 after onset of clinical symptoms", "type": "in vivo, mouse", "description": "Ten-week old female mice purchased from Jackson Laboratory were subcutaneously injected at two sites with 100 μL […] emulsified in CFA (Hooke Labs) per flank. On the same day, 6 hours later, and on day 2, mice were injected with 100 ng of pertussis toxin in 200 μL i.p. Mice were monitored daily and scored on a scale of 0-5 where 0, no disease; 1, tail paralysis; 2; hind limb paresis; 3, complete hind limb paralysis; 4, front limb weakness and hind limb paralysis, and 5, moribund state. When stated, mice were either administered 25 mg/kg 4EGI-1 or vehicle i.p. from d 0 to 21 following EAE induction or 75 mg/kg 4EGI-1 or vehicle i.p. from day 12 to 21 following EAE induction and randomization. LFB-H images imported into FIJI underwent color deconvolution to isolate myelin staining. A binary image was generated and % myelination of the spinal cord was calculated. Spinal cords from mice not subjected to EAE were set to 100% and all other samples from the same group were normalized. H&E images imported into FIJI underwent color deconvolution to isolate hematoxylin staining. A binary image was generated and % infiltration of the spinal cord of was calculated. Five-micron sections of paraffin embedded tissue were stained with Akoya Biosciences® Opal™ multiplex automation kit reagents unless stated otherwise. Automated staining was performed on Leica BondRX® autostainer. The protocol was performed according to manufacturers' instructions with primary antibodies to CD19 (Cell Signaling Technology, cat #90176) and CD4 (Cell Signaling Technology, cat #25229). Briefly, all slides underwent sequential epitope retrieval with Leica Biosystems epitope retrieval 2 solution (EDTA based, pH9, Cat. AR9640), primary and secondary antibody incubation and tyramide signal amplification (TSA) with Opal® fluorophores Op690 and Op520. Primary and secondary antibodies were removed during epitope retrieval steps while fluorophores remain covalently attached to the epitope. Semi-automated image acquisition was performed on a Vectra® Polaris multispectral imaging system. After whole slide scanning at 10× the tissue was manually outlined to select fields for multispectral imaging at 20×. Phenochart® software from Akoya Biosciences was used for spectral unmixing of the whole slide scans. Scans were imported into QuPath and representative images were exported into FIJI."}, "[4]": {"settings": "4EGI-1 up to 25 μM, 4 hours, mouse CD4+ T cells"}, "[5]": {"settings": "10-25 μM 4EGI-1, 4 hours, mouse CD4+ lymphocytes in culture"}},
  "data": [
    {"smiles": "O=C(O)C(Cc1ccccc1[N+](=O)[O-])=NNc1nc(-c2ccc(Cl)c(Cl)c2)cs1", "note": "(mixture of isomers) [4EGI-1]", "values": [
      {"measurement": "secretion of IFN-γ or TNF-α by differentiated TH1 cells", "setting": "[1]", "result": "not altered"},
      {"measurement": "secretion of IL-13 by in vitro differentiated TH2 cells", "setting": "[1]", "result": "did not affect"},
      {"measurement": "secretion of IL-17A or IL-17F by differentiated TH17 cells", "setting": "[1]", "result": "not altered"},
      {"measurement": "levels of CXCR5 protein", "setting": "[2]; [4]", "result": "unchanged"},
      {"measurement": "levels of ICOS protein", "setting": "[2]; [4]", "result": "unchanged"},
      {"measurement": "levels of PD-1 protein", "setting": "[2]; [4]", "result": "unchanged"},
      {"measurement": "reduction of BCL6 protein levels", "setting": "[2]; [4]", "result": "~3", "unit": "fold"},
      {"measurement": "cell viability", "setting": "[2]; [5]", "result": "without reducing"},
      {"measurement": "reduction of protein synthesis (SUnSET)", "setting": "[2]; [5]", "result": "3-4 fold"},
      {"measurement": "day by which mice entered remission", "setting": "[3]; 75 mg/kg from day 12", "result": "≤ 15", "unit": "days"},
      {"measurement": "decrease of CD4+ T cells producing IFN-γ in spinal cord and brain", "setting": "[3]; 75 mg/kg from day 12", "result": 4, "unit": "fold"},
      {"measurement": "decrease of CD4+ T cells producing IL-17A in spinal cord and brain", "setting": "[3]; 75 mg/kg from day 12", "result": 4, "unit": "fold"},
      {"measurement": "decreased infiltration and retention of CD4+ T cells in brain", "setting": "[3]; 75 mg/kg from day 12", "result": 4, "unit": "fold"},
      {"measurement": "time to marked improvement in clinical symptoms after 4EGI-1 administration", "setting": "[3]; 75 mg/kg from day 12", "result": "2 to 3", "unit": "days"},
      {"measurement": "spinal cord immune cell infiltration", "setting": "[3]; 75 mg/kg from day 12, H&E", "result": "marked reduction"},
      {"measurement": "weight compared to vehicle-treated animals", "setting": "[3]; 75 mg/kg from day 12, day 18", "result": "increased"},
      {"measurement": "decreased infiltration and retention of CD4+ T cells in spinal cord", "setting": "[3]; 75 mg/kg from day 12, day 21", "result": 4, "unit": "fold"},
      {"measurement": "decreased levels of splenic TFH cells", "setting": "[3]; 75 mg/kg from day 12, day 21", "result": 3, "unit": "fold"},
      {"measurement": "demyelination compared to vehicle-treated mice", "setting": "[3]; 75 mg/kg from day 12, day 21", "result": "reduced"},
      {"measurement": "myelination regained, relative to normal levels", "setting": "[3]; 75 mg/kg from day 12, day 21, Luxol fast blue", "result": "~90", "unit": "%"},
      {"measurement": "ELFs / CD4+ T cell clusters in spinal cord", "setting": "[3]; 75 mg/kg from day 12, immunofluorescence", "result": "smaller clusters"},
      {"measurement": "progression of disease", "setting": "[3]; 75 mg/kg from day 12, vs vehicle-treated mice", "result": "inhibited"}
    ]}
  ]
}
